How the values were obtained:
[1] = tested on: myeloid dendritic cells (DCs); settings: CD40-induced maturation of myeloid DCs; cited from earlier work
[2] = tested on: IL-6-dependent MM cell lines; settings: cited from earlier work
[3] = tested on: murine skin contact delayed-type hypersensitivity (DTH) response; assay: Murine DTH model for dermatitis, ear swelling; type: in vivo, mice
Description: Certain compounds herein were also tested for their efficacies (of inhibiting Jak targets) in the T-cell driven murine delayed hypersensitivity test model. The murine skin contact delayed-type hypersensitivity (DTH) response is considered to be a valid model of clinical contact dermatitis, and other T-lymphocyte mediated immune disorders of the skin, such as psoriasis (Immunol Today. 1998 January; 19(1):37-44). Murine DTH shares multiple characteristics with psoriasis, including the immune infiltrate, the accompanying increase in inflammatory cytokines, and keratinocyte hyperproliferation. Furthermore, many classes of agents that are efficacious in treating psoriasis in the clinic are also effective inhibitors of the DTH response in mice (Agents Actions. 1993 January; 38(1-2):116-21).
Test compound 3-{(3R,4R)-4-methyl-3-[methyl-(7H-pyrrolo[2,3-d]pyrimidin-4-yl)amino]-piperidin-1-yl}-3-oxo-propionitrile (see, e.g., WO 01/42246, WO 02/00661, or WO 03/48162) was administered continuously using mini-osmotic pumps to deliver the compound at 150 mg/kg/d. The inflammatory response was monitored by measuring the ear thickness prior to and after immune challenge. Differences in ear thickness were calculated for each mouse and then averaged for the group. Comparisons were made between vehicle and the treated groups in the context of the negative controls (challenged without sensitization) and therapeutic positive control mice (treated with dexamethasone or other efficacious agent).
A further murine DTH experiment was conducted by treating mice with 3-{(3R,4R)-4-methyl-3-[methyl-(7H-pyrrolo[2,3-d]pyrimidin-4-yl)amino]-piperidin-1-yl}-3-oxo-propionitrile either systemically or topically (3%, BID) after the sensitization phase was complete.

STAT3 = assay: Immunohistochemistry of ear sections in murine DTH model; type: in vivo, mice; settings: after the sensitization phase
Description: To determine if topical administration of the test compound was sufficient to inhibit activation of the Jak-STAT pathway, immunohistochemistry was carried out on fixed tissues.

[4] = tested on: NOD mouse model of autoimmune type 1 diabetes; settings: cited from earlier work
[5] = systemic, continuous by mini-osmotic pumps, 150 mg/kg/d

COc1cc2ncnc(Nc3ccc(O)c(Br)c3)c2cc1OC [WHI-P-154]
CD40-induced JAK3 activity, costimulatory molecule expression, IL-12 production, allogeneic stimulatory capacity [1]: prevented these effects

N#C/C(=C\c1ccc(O)c(O)c1)C(=O)NCc1ccccc1 [tyrphostin AG490]
JAK2 kinase activity and ERK2 and STAT3 phosphorylation [2]: inhibited
apoptosis [2]: induced
cell proliferation [2]: suppressed

C[C@@H]1CCN(C(=O)CC#N)C[C@@H]1N(C)c1ncnc2[nH]ccc12 [3-{(3R,4R)-4-methyl-3-[methyl-(7H-pyrrolo[2,3-d]pyrimidin-4-yl)amino]-piperidin-1-yl}-3-oxo-propionitrile]
inhibition of ear swelling ([3]; systemic administration during the challenge phase, after sensitization phase complete (FIG. 1)): > 50%
histological analysis of hematoxolyin and eosin stained tissue sections [3, 5]: near complete inhibition of ear swelling
inhibition of ear swelling [3, 5]: 95%
inhibition of ear swelling ([3]; topical administration (3%, BID) during the challenge phase, after sensitization phase complete (FIG. 1)): > 50%
number of infiltrating cells (STAT3; systemic administration): visibly reduced
phosphorylation of STAT3 in all cell types (STAT3; systemic administration): inhibited
number of infiltrating cells (STAT3; topical administration): visibly reduced
phosphorylation of STAT3 in all cell types (STAT3; topical administration): inhibited

COc1cc2ncnc(Nc3ccc(O)cc3)c2cc1OC [JANEX-1]
onset of diabetes [4]: delayed the onset of diabetes

Source: patent publication US9879010B2, “Pyrrolo[2,3-b]pyridin-4-yl-amines and pyrrolo[2,3-b] pyrimidin-5-yl-amines as Janus kinase inhibitors” (Incyte Corporation, priority 2004, dated 2018)
